From patent US20050154537A1, “Methods, program products, and systems for single and multi-agent dosing and other related methods” (priority 2003, published 2005) come the findings set out here.

The test system of the data set is ANC. The data set can be described thus: Chemotherapeutic doublet cycle dose modifier (Taxol, Gemzar), ANC marker. It counts as in vivo. The following applies: ANC of patient on doublet. From the text: Gemzar and Taxol are used in this example as dual agents. Table 2 illustrates a method of revising a drug dose in treating a patient with two pharamcologic and non-pharmacological modalities to optimize pharmacologic outcome, e.g., to reduce risk of an adverse drug event while assessing the clinical relevancy and validity of the measured surrogate markers.
Previous Level of Toxicity-Efficacy (PLTE) is a value directly entered such as from a lab report. It is the numerical value of the marker of toxicity or efficacy reported at the previous dose cycle adjustment (evaluated at a specified elapsed time sufficient to capture the nadir of the dose effect). The surrogate marker is selected when the dose modifier is constructed.
Current Level of Toxicity-Efficacy (CLTE) is a value directly entered such as from a lab report. It is the numerical value of the marker of toxicity or efficacy reported with the current dose cycle. The surrogate marker is that value that illustrates the expression of the toxicity or efficacy of the agent on a specific and pre-selected value determined when the dose modifier is constructed. […] If valid, then the value is fully appreciated and the dose modification can be calculated. […]
Projected Marker Agent 1 (Taxol) (PM1) is calculated by a dose modifier. […]
Projected Marker Agent 2 (Gemzar) (PM2) is calculated by a dose modifier. […]

Turning to `CC(=O)O[C@H]1C(=O)[C@@]2(C)[C@H]([C@H](OC(=O)c3ccccc3)[C@]3(O)C[C@H](OC(=O)[C@H](O)[C@@H](NC(=O)c4ccccc4)c4ccccc4)C(C)=C1C3(C)C)[C@]1(OC(C)=O)CO[C@@H]1C[C@@H]2O` [Taxol], the “Current Level of Toxicity/CLTEM1” value (current cycle total dose Taxol 300, Gemzar 6200, marker 9 days after dose) amounted to 1.50. Also, where the note is “previous cycle total dose Taxol 385, Gemzar 7650”, the “Previous Level of Toxicity/PLTEM1” value is given as 1.00.
